Where “and” joins values, the source holds several entries; their conditions need not be identical. Equal values may be shown once. Inconclusive results and toxic doses are left out.
System: L1210 leukemia ip in BDF1 mice, survival T/C
Assay: NCI In Vivo Anticancer Drug Screen. Data for tumor model L1210 Leukemia (intraperitoneal) in B6D2F1 (BDF1) mice
Details: endpoint: mean survival time, higher = longer survival
Procedure, shortened: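 Survival endpoint. Drug-treated group vs vehicle group, expressed as T divided by C. Tumor passaged by transplantation.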

[1] = dose: 100.0 mg/kg/injection, schedule: Q01DX009 (ip), vehicle: saline with Tween-80
[2] = dose: 100.0 mg/kg/injection, schedule: Q04DX003 (ip), vehicle: saline with Tween-80
[3] = dose: 200.0 mg/kg/injection, schedule: Q01DX009 (ip), vehicle: saline with Tween-80
[4] = dose: 200.0 mg/kg/injection, schedule: Q04DX003 (ip), vehicle: saline with Tween-80
[5] = dose: 400.0 mg/kg/injection, schedule: Q01DX009 (ip), vehicle: saline with Tween-80
[6] = dose: 400.0 mg/kg/injection, schedule: Q04DX003 (ip), vehicle: saline with Tween-80
[7] = dose: 100.0 mg/kg/injection, schedule: Q01DX001 (ip), vehicle: saline
[8] = dose: 200.0 mg/kg/injection, schedule: Q01DX001 (ip), vehicle: saline
[9] = dose: 400.0 mg/kg/injection, schedule: Q01DX001 (ip), vehicle: saline
[10] = dose: 100.0 mg/kg/injection, schedule: Q01DX001 (ip), vehicle: Klucel (hydroxypropylcellulose) (HPC)
[11] = dose: 100.0 mg/kg/injection, schedule: Q04DX003 (ip), vehicle: Klucel (hydroxypropylcellulose) (HPC)
[12] = dose: 200.0 mg/kg/injection, schedule: Q01DX001 (ip), vehicle: Klucel (hydroxypropylcellulose) (HPC)
[13] = dose: 200.0 mg/kg/injection, schedule: Q04DX003 (ip), vehicle: Klucel (hydroxypropylcellulose) (HPC)
[14] = dose: 400.0 mg/kg/injection, schedule: Q01DX001 (ip), vehicle: Klucel (hydroxypropylcellulose) (HPC)
[15] = dose: 400.0 mg/kg/injection, schedule: Q04DX003 (ip), vehicle: Klucel (hydroxypropylcellulose) (HPC)
[16] = dose: 100.0 mg/kg/injection, schedule: Q01DX009 (ip), vehicle: Klucel (hydroxypropylcellulose) (HPC)
[17] = dose: 25.0 mg/kg/injection, schedule: Q01DX009 (ip), vehicle: Klucel (hydroxypropylcellulose) (HPC)
[18] = dose: 25.0 mg/kg/injection, schedule: Q04DX003 (ip), vehicle: Klucel (hydroxypropylcellulose) (HPC)
[19] = dose: 50.0 mg/kg/injection, schedule: Q01DX009 (ip), vehicle: Klucel (hydroxypropylcellulose) (HPC)

`C#CCn1c(=O)c2c(ncn2C)n(C)c1=O` was tested, and the T/C (dose: 6.25 mg/kg/injection, schedule: Q04DX003 (ip), vehicle: saline) was 100 % of control.

For `O=S(=O)(OCCNc1ccccc1)c1ccccc1`, the T/C (dose: 75.0 mg/kg/injection, schedule: Q01DX001 (ip), vehicle: saline) was 101 % of control, the T/C (dose: 150.0 mg/kg/injection, schedule: Q01DX001 (ip), vehicle: saline) was 98 % of control and the T/C (dose: 300.0 mg/kg/injection, schedule: Q01DX001 (ip), vehicle: saline) was 98 % of control.

In the case of `CCOC(=O)Nc1cc(Cl)cc(NC(=O)OCC)n1`, the T/C (dose: 100.0 mg/kg/injection, schedule: Q01DX001 (ip), vehicle: other) is reported as 94 % of control, the T/C [1] is reported as 96 % of control and the T/C [2] is reported as 107 % of control. The T/C (dose: 200.0 mg/kg/injection, schedule: Q01DX001 (ip), vehicle: other) was 102 % of control, the T/C [3] was 106 % of control and the T/C [4] was 100 % of control. The T/C (dose: 400.0 mg/kg/injection, schedule: Q01DX001 (ip), vehicle: other) was 96 % of control, the T/C [5] was 96 % of control and the T/C [6] was 108 % of control.

For `COc1ccc(/C=C\C(=O)OCCCCOC(=O)/C=C/c2ccc(OC)cc2)cc1`, the T/C (dose: 50.0 mg/kg/injection, schedule: Q01DX001 (ip), vehicle: saline) was 95 % of control, the T/C [7] was 95 % of control and the T/C [8] was 95 % of control. For the same compound, the T/C [9] was 95 % of control.

With `[N-]=[N+]=C1c2ccccc2-c2ccccc21` the T/C [10] was 94 % of control, the T/C [11] was 104 % of control and the T/C [12] was 93 % of control. The T/C [13] was 90 % of control, the T/C [14] was 91 % of control and the T/C [15] was 101 % of control.

In the case of `CC(=O)OC1CCC2(C)C(CCC3C4CC(N5CC5)C(C(C)=O)C4(C)CC(=O)C32)C1` (centres undefined), the T/C (dose: 100.0 mg/kg/injection, schedule: Q01DX001 (sc), vehicle: steriod suspending solution) is reported as 99 % of control, the T/C (dose: 200.0 mg/kg/injection, schedule: Q01DX001 (sc), vehicle: steriod suspending solution) is reported as 100 % of control and the T/C (dose: 400.0 mg/kg/injection, schedule: Q01DX001 (sc), vehicle: steriod suspending solution) is reported as 94 % of control.

With `O=c1ccnc(/C=C/c2ccc(Cl)cc2)[nH]1` the T/C [3] was 87 % of control and the T/C [5] was 96 % of control.

With `NNC(=O)C1C2C=CC(C2)C1C(=O)NN` (centres undefined) the T/C [2] was 103 % of control, the T/C [4] was 91 % of control and the T/C [6] was 100 % of control.

In the case of `N=C1C(=O)c2ccccc2-c2ccccc21`, the T/C [10] is reported as 97 % of control, the T/C [12] is reported as 98 % of control and the T/C [14] is reported as 98 % of control.

`COc1ccc2c(c1)C1C=[S+]c3ccccc3C1N2` (centres undefined) was tested, and the T/C (dose: 12.5 mg/kg/injection, schedule: Q01DX009 (ip), vehicle: saline) was 101 % of control, the T/C (dose: 12.5 mg/kg/injection, schedule: Q04DX003 (ip), vehicle: saline) was 95 % of control and the T/C (dose: 25.0 mg/kg/injection, schedule: Q01DX009 (ip), vehicle: saline) was 103 % of control. The T/C (dose: 25.0 mg/kg/injection, schedule: Q04DX003 (ip), vehicle: saline) was 92 % of control and the T/C (dose: 50.0 mg/kg/injection, schedule: Q04DX003 (ip), vehicle: saline) was 98 % of control.

With `COc1ccccc1CC(=O)Oc1ccccc1` the T/C [7] was 97 % of control, the T/C [8] was 96 % of control and the T/C [9] was 102 % of control.

In the case of `O=C(c1ccccc1)c1cc(Cl)ccc1N1C(=O)C=CC1=O`, the T/C (dose: 25.0 mg/kg/injection, schedule: Q04DX002 (ip), vehicle: saline with Tween-80) is reported as 90 % of control.

With `O=C1c2c(I)c(I)c(I)c(I)c2C(=O)N1CCO` the T/C [16] was 92 % of control, the T/C [11] was 94 % of control and the T/C (dose: 200.0 mg/kg/injection, schedule: Q01DX009 (ip), vehicle: Klucel (hydroxypropylcellulose) (HPC)) was 97 % of control. The T/C [13] was 97 % of control, the T/C (dose: 400.0 mg/kg/injection, schedule: Q01DX009 (ip), vehicle: Klucel (hydroxypropylcellulose) (HPC)) was 104 % of control and the T/C [15] was 92 % of control.

For `Nc1[nH]nc2nc(-c3ccc(Cl)cc3)cnc12`, the T/C (dose: 50.0 mg/kg/injection, schedule: Q01DX009 (ip), vehicle: saline with Tween-80) was 104 % of control, the T/C [1] was 101 % of control and the T/C [2] was 95 % of control. For the same compound, the T/C [3] was 98 % of control and the T/C [4] was 95 % of control.

For `C#CCCCCC#CCCCCNC(=O)NCCCCC#CCCCCC#C`, the T/C (dose: 100.0 mg/kg/injection, schedule: Q04DX003 (ip), vehicle: saline) was 93 % of control, the T/C (dose: 200.0 mg/kg/injection, schedule: Q04DX003 (ip), vehicle: saline) was 90 % of control and the T/C (dose: 400.0 mg/kg/injection, schedule: Q04DX003 (ip), vehicle: saline) was 87 % of control.

In the case of `CCN(CCP(c1ccccc1)c1ccccc1)CCP(c1ccccc1)c1ccccc1`, the T/C (dose: 6.25 mg/kg/injection, schedule: Q01DX009 (ip), vehicle: Klucel (hydroxypropylcellulose) (HPC)) is reported as 120 % of control, the T/C (dose: 19.0 mg/kg/injection, schedule: Q01DX001 (ip), vehicle: other) is reported as 120 % of control and the T/C [17] is reported as 122 % of control. The T/C [18] was 106 % of control, the T/C (dose: 38.0 mg/kg/injection, schedule: Q01DX001 (ip), vehicle: other) was 112 % of control and the T/C [19] was 100 % of control and 117 % of control. For the same compound, the T/C (dose: 50.0 mg/kg/injection, schedule: Q04DX003 (ip), vehicle: Klucel (hydroxypropylcellulose) (HPC)) was 116 % of control, the T/C [16] was 111 % of control and the T/C [11] was 122 % of control.

`Cc1cc([N+](=O)[O-])c2ccccc2c1N` was tested, and the T/C [1] was 117 % of control, the T/C [3] was 98 % of control and the T/C [5] was 105 % of control.

In the case of `CN(C)N=Nc1ccc2[nH]ncc2c1`, the T/C (dose: 14.5 mg/kg/injection, schedule: Q01DX009 (ip), vehicle: Klucel (hydroxypropylcellulose) (HPC)) is reported as 123 % of control, the T/C (dose: 16.5 mg/kg/injection, schedule: Q04DX003 (ip), vehicle: Klucel (hydroxypropylcellulose) (HPC)) is reported as 100 % of control and the T/C [17] is reported as 114 % of control. For the same compound, the T/C [18] was 107 % of control, the T/C (dose: 33.0 mg/kg/injection, schedule: Q01DX009 (ip), vehicle: Klucel (hydroxypropylcellulose) (HPC)) was 152 % of control and the T/C (dose: 37.5 mg/kg/injection, schedule: Q04DX003 (ip), vehicle: Klucel (hydroxypropylcellulose) (HPC)) was 117 % of control. The T/C [19] was 119 % of control and the T/C [10] was 111 % of control.

With `N#CC(C#N)=CN1CCCC1` the T/C (dose: 5.0 mg/kg/injection, schedule: Q01DX009 (ip), vehicle: saline with Tween-80) was 89 % of control, the T/C (dose: 10.0 mg/kg/injection, schedule: Q01DX009 (ip), vehicle: saline with Tween-80) was 91 % of control and the T/C (dose: 20.0 mg/kg/injection, schedule: Q01DX009 (ip), vehicle: saline with Tween-80) was 93 % of control.

With `CS(=O)(=O)OCC1CCC(COS(C)(=O)=O)CC1` (centres undefined) the T/C [11] was 103 % of control, the T/C [13] was 100 % of control and the T/C [15] was 102 % of control.

`O=C(NCCBr)c1ccc(N=Nc2ccccc2)cc1` was tested, and the T/C (dose: 20.0 mg/kg/injection, schedule: Q01DX009 (ip), vehicle: Klucel (hydroxypropylcellulose) (HPC)) was 95 % of control, the T/C (dose: 20.0 mg/kg/injection, schedule: Q04DX003 (ip), vehicle: Klucel (hydroxypropylcellulose) (HPC)) was 103 % of control and the T/C (dose: 40.0 mg/kg/injection, schedule: Q01DX009 (ip), vehicle: Klucel (hydroxypropylcellulose) (HPC)) was 95 % of control. The T/C (dose: 40.0 mg/kg/injection, schedule: Q04DX003 (ip), vehicle: Klucel (hydroxypropylcellulose) (HPC)) was 103 % of control, the T/C (dose: 80.0 mg/kg/injection, schedule: Q01DX009 (ip), vehicle: Klucel (hydroxypropylcellulose) (HPC)) was 91 % of control and the T/C (dose: 80.0 mg/kg/injection, schedule: Q04DX003 (ip), vehicle: Klucel (hydroxypropylcellulose) (HPC)) was 105 % of control.

— PubChem BioAssay AID248 (DTP/NCI, 2004)
